{
  "source": "patent US9018235B2",
  "about": "“Insecticide compositions” (priority 2004, dated 2015)",
  "type_in_all_cases": "in vivo",
  "key": {"Chilo suppressalis": {"system": "Chilo suppressalis", "source_text": "(§1) When the effect obtained by combination of two kinds of the active compounds exceeds the expected value E as calculated by the below-described equation of Colby et al., the synergistic effect is deemed to exist. E=X+Y−X·Y/100 [Equation 2] wherein • E=the death rate of larvae obtained when the active compounds A and B are used at the dose of m and n, respectively; • X=the death rate of larvae when the active compound A is used at the dose of m; • Y=the death rate of larvae when the active compound B is used at the dose of n.\nA test compound was dissolved by adding acetone containing 5% of Tween 20 (tradename) at the rate of 0.1 ml per 1 mg of the test compound, and the insecticide solution prepared by diluting the solution with ion-exchange water to a predetermined concentration was drenched onto the surface of the soil for raising rice seedlings (5 to 6 seedlings/plant as planted in a paper pot) in the 2.5- to 3-leaf stage at the rate of 1 ml per plant. Two days later, the stalks about 2 cm higher above the soil surface were cut and placed in a test tube, into which 10 heads of 3-instar larvae of Chilo suppressalis were released. The test rube was kept in a breeding chamber controlled at a constant temperature (25° C.), and the number of living larvae was counted 4 to 5 days later. Death rate of larvae=(Number of larvae dead)/(Number of larvae tested)×100 [Equation 4]"}, "Plutella xylostella [1]": {"system": "Plutella xylostella", "experiment": "Insecticidal effect against Plutella xylostella through plant-root soil drenching of cabbage (Test Example 4)", "conditions": "single compound, plant-root drench, 2-instar larvae", "source_text": "as §1\nA test compound was dissolved by adding acetone containing 5% of Tween 20 (tradename) at the rate of 0.1 ml per 1 mg of the test compound, and the solution was diluted with ion-exchange water to a total volume of 3 ml. Each of the insecticide solutions prepared was drenched onto the surface of the plant root soil for a cabbage plant grown in a cell tray (with a soil capacity of 24 ml). Four days later, the above-ground part of the plant was cut and placed in a plastic cup, into which 10 heads of 2-instar larvae of Plutella xylostella were released. The cup was kept in a breeding chamber controlled at a constant temperature (25° C.), and the number of living larvae was counted 4 days later. Death rate of larvae=(Number of larvae dead)/(Number of larvae tested)×100 [Equation 5]"}, "Spodoptera litura [2]": {"system": "Spodoptera litura", "experiment": "Insecticidal effect against Spodoptera litura through soaking treatment of soybean roots (Test Example 2)", "conditions": "single compound, soybean root soaking, 3-instar larvae", "source_text": "as §1\nA test compound was dissolved by adding acetone containing 5 of Tween 20 (tradename) at the rate of 0.1 ml per 1 mg of the test compound, and the insecticide solution prepared by diluting the solution with ion-exchange water to a predetermined concentration was charged into a light-shielded Erlenmeyer flask (100 ml), into which the root portion of a soybean plant in the stage of development of primary leaves was soaked after being washed with running water to remove soil. Five days after root soaking, two primary leaves were cut off and placed in an ice-cream cup (with a capacity of 180 ml), into which 10 heads of 3-instar larvae were released. The ice-cream cup was kept in a breeding room controlled at a constant temperature (25° C.), and 5 days later, the number of dead larvae was counted. Death rate of larvae=(Number of larvae dead)/(Number of larvae tested)×100 [Equation 3]"}, "Spodoptera litura [3]": {"system": "Spodoptera litura", "experiment": "Insecticidal effect against Spodoptera litura by soaking treatment of soybean leaves (Test Example 1)", "conditions": "single compound, 0.03 ppm; soybean leaf soaking; 3-instar larvae; 25° C.", "experimental": "A test compound was dissolved by addition of acetone containing 5% of Tween 20 (tradename) at the rate of 0.1 ml per 1 mg of the test compound, and after the solution is diluted with aqueous 5,000-fold diluted DAIN solution to a predetermined concentration, soybean leaves after complete development of primary leaves were treated through soaking in the insecticide solution for several seconds. After the insecticide solution was dried, four primary leaves were cut off and placed in an ice-cream cup (with a capacity of 180 ml), in which 10 heads of 3-instra larvae of Spodoptera litura were released. The ice-cream cup was kept in a breeding room controlled at a constant temperature (25° C.), and the number of dead larvae was counted three days later. Death rate of larvae=(Number of larvae dead)/(Number of larvae tested)×100 [Equation 1]\nas §1"}, "Plutella xylostella [4]": {"system": "Plutella xylostella", "experiment": "Insecticidal effect against Plutella xylostella through soaking treatment of cabbage leaf (Test Example 5)", "conditions": "single compound, amount applied 0.0064 mg/plant (as headed), 2-instar larvae", "source_text": "as §1\nA test compound was dissolved by adding acetone containing 5% of Tween 20 (tradename) at the rate of 0.1 ml per 1 mg of the test compound, and the insecticide solution was prepared by diluting the solution with an aqueous 5.000-fold diluted DAIN solution to a predetermined concentration. A cabbage leaf was cut off at the site of petiole and soaked in the insecticide solution for several seconds. […] The cup was kept in a breeding room controlled at a constant temperature (25° C.), and the number of dead larvae was counted 4 days later. The death rate of larvae was calculated by the following equation, and the results were shown in Table 8: (Death rate of larvae=(Number of larvae dead)/(Number of larvae tested)×100 [Equation 6]"}},
  "note": "Where two headings read alike, the source gives them in different places.",
  "data": [
    {"smiles": "CNC(=N[N+](=O)[O-])NCC1CCOC1", "note": "(racemic) [Dinotefuran, (RS)-1-methyl-2-nitro-3-(tetrahydro-3-furylmethyl)guanidine]", "values": [
      {"measurement": "Death rate, 5 days later, %", "setting": "Chilo suppressalis; in vivo", "result": 0, "unit": "%"},
      {"measurement": "Death rate, 4 days later, %", "setting": "Plutella xylostella [1]; 0.0016 mg/plant", "result": 0, "unit": "%"},
      {"measurement": "Death rate, 4 days later, %", "setting": "Plutella xylostella [1]; 0.04 mg/plant", "result": 10, "unit": "%"}
    ]},
    {"smiles": "CN/C(=N\\[N+](=O)[O-])NCc1cnc(Cl)s1", "note": "[Clothianidin, (E)-1-(2-chloro-1,3-thiazol-5-ylmethyl)-3-methyl-2-nitroguanidine]", "values": [
      {"measurement": "Death rate, 5 days later, %", "setting": "Spodoptera litura [2]; 0.00032 ppm", "result": 0, "unit": "%"},
      {"measurement": "Death rate, 4 days later, %", "setting": "Chilo suppressalis; single compound, 0.001 mg/plant, soil drench, rice, 3-instar larvae", "result": 10, "unit": "%"},
      {"measurement": "Death rate, 3 days later, %", "setting": "Spodoptera litura [3]", "result": 0, "unit": "%"}
    ]},
    {"smiles": "Cc1cccc(C(=O)NC(C)C)c1NC(=O)c1cc(C(F)(F)F)nn1-c1ncccc1Cl", "note": "[Compound (I-1), 2-[1-(3-chloropyridin-2-yl)-3-trifluoromethylpyrazol-5-ylcarbonylamino]-N-isopropyl-3-methylbenzamide]", "values": [
      {"measurement": "Death rate, 5 days later, %", "setting": "Spodoptera litura [2]; 0.007 ppm", "result": 55, "unit": "%"},
      {"measurement": "Death rate, 4 days later, %", "setting": "Chilo suppressalis; single compound, 0.01 mg/plant, soil drench, rice, 3-instar larvae", "result": 30, "unit": "%"}
    ]},
    {"smiles": "Cc1cc(Cl)cc(C(=O)NC(C)C)c1NC(=O)c1cc(C(F)(F)F)nn1-c1ncccc1Cl", "note": "[Compound (I-2), 5-chloro-2-[1-(3-chloropyridin-2-yl)-3-trifluoromethylpyrazol-5-ylcarbonylamino]-N-isopropyl-3-methylbenzamide]", "values": [
      {"measurement": "Death rate, 4 days later, %", "setting": "Plutella xylostella [1]; 0.0016 mg/plant", "result": 0, "unit": "%"},
      {"measurement": "Death rate, 3 days later, %", "setting": "Spodoptera litura [3]", "result": 30, "unit": "%"}
    ]},
    {"smiles": "Cc1cccc(C(=O)NC(C)C)c1NC(=O)c1cc(Cl)nn1-c1ncccc1Cl", "note": "[Compound (I-3), 2-[1-(3-chloropyridin-2-yl)-3-chloropyrazol-5-ylcarbonylamino]-N-isopropyl-3-methylbenzamide]", "values": [
      {"measurement": "Death rate, 4 days later, %", "setting": "Plutella xylostella [1]; 0.04 mg/plant", "result": 50, "unit": "%"}
    ]},
    {"smiles": "Cc1cc(Cl)cc(C(=O)NC(C)C)c1NC(=O)c1cc(Cl)nn1-c1ncccc1Cl", "note": "[Compound (I-4), 5-chloro-2-[1-(3-chloropyridin-2-yl)-3-chloropyrazol-5-ylcarbonylamino]-N-isopropyl-3-methylbenzamide]", "values": [
      {"measurement": "Death rate, 4 days later, %", "setting": "Plutella xylostella [4]", "result": 15, "unit": "%"}
    ]},
    {"smiles": "Cc1cccc(C(=O)NC(C)C)c1NC(=O)c1cc(Br)nn1-c1ncccc1Cl", "note": "[Compound (I-5), 2-[3-bromo-1-(3-chloropyridin-2-yl)pyrazol-5-ylcarbonylamino]-N-isopropyl-3-methylbenzamide]", "values": [
      {"measurement": "Death rate, 5 days later, %", "setting": "Chilo suppressalis; single compound, 0.15 mg/plant, soil drench, rice, 3-instar larvae", "result": 5, "unit": "%"}
    ]},
    {"smiles": "Cc1cc(Cl)cc(C(=O)NC(C)C)c1NC(=O)c1cc(Br)nn1-c1ncccc1Cl", "note": "[Compound (I-6), 2-[3-bromo-1-(3-chloropyridin-2-yl)-pyrazol-5-ylcarbonylamino]-5-chloro-N-isopropyl-3-methylbenzamide]", "values": [
      {"measurement": "Death rate, 5 days later, %", "setting": "Spodoptera litura [2]; 0.00032 ppm", "result": 0, "unit": "%"}
    ]},
    {"smiles": "CN1COCN(Cc2cnc(Cl)s2)C1=N[N+](=O)[O-]", "note": "[Thiamethoxam, 3-(2-chloro-1,3-thiazol-5-yl-methyl)-5-methyl-1,3,5-oxa-diazinan-4-ylidene(nitro)amine]", "values": [
      {"measurement": "Death rate, 5 days later, %", "setting": "Spodoptera litura [2]; 0.007 ppm", "result": 0, "unit": "%"},
      {"measurement": "Death rate, 4 days later, %", "setting": "Plutella xylostella [4]", "result": 10, "unit": "%"}
    ]}
  ]
}
